The values below come from patent US6316500A, “Aliphatically unsaturated hydroxy benzoates and preservative compositions thereof” (ISP Investments Inc., priority 1999, dated 2001).

Data set [1] is described as follows: Partition coefficients (log of oil/water solubility).
Text: A greater water partitioning is indicated by a low log value.
For another data set, the system named is A. niger 16404. Nature of the data set: Activity test: preservative challenge test in emulsion, A. niger 16404. The class given is cell-based. The conditions noted are these: 0.5% preservative in emulsion; for number of colonies per milliliter, 28 days: reinoculated at 21 days. Here is the method:
(§1) The emulsion was prepared by separately mixing components in phase A and phase B at 75-80° C. for 15 minutes. The phases were then combined and mixed for another 10 minutes and cooled to 45° C. with stirring. Preservative was then added followed by citric acid to adjust pH to from abut 6.5 to 7.5. Stirring of the resulting mixture was continued until a temperature of 30° C. was reached. The activity tests were carried out using the following microorganisms: A. niger, B. cepacia, C. albicans, E. coli, P. aeruginosa and S. aureus. 50 g aliquots of the test emulsion containing various amounts of the preservative admixture as reported in Tables I-V were inoculated with approximately 10^7 -10^8 of the test organisms. The test samples then were stirred to disperse the challenge inoculum. The samples were incubated and assayed at 48 hours, 7, 14, 21 and 28 days. The assays were performed on 1 g, of the test sample by serially diluting 10^3 to 10^6 of the original concentration. The plating medium for bacteria was Letheen agar and for fungi it was low pH Mycophil agar with Tween 20. Each plated sample was incubated for 48 hours at 37° C. for bacteria, 5 days at 25° C. for mold and 3 days at 25° C. for fungi. After incubation, readings of the number of colonies per milliliter (cfu/ml) were made results were determined, as reported in associated Tables IA-VA. At 21 days the test product was reinoculated with half of the original inoculum.

A further data set concerns B. cepacia 25416. The data set is described as follows: Activity test: preservative challenge test in emulsion, B. cepacia 25416. It is filed as cell-based. The conditions noted are these: 0.5% preservative in emulsion; for number of colonies per milliliter, 28 days: reinoculated at 21 days. As to the method:
as §1

For another data set, the system named is C. albicans 10231. The data set is described as follows: Activity test: preservative challenge test in emulsion, C. albicans 10231. The class given is cell-based. The conditions noted are these: 0.5% preservative in emulsion; for number of colonies per milliliter, 28 days: reinoculated at 21 days. Here is the method: as §1
A further data set relates to E. coli 8739. The data set is described as follows: Activity test: preservative challenge test in emulsion, E. coli 8739. The class given is cell-based. The conditions noted are these: 0.5% preservative in emulsion; for number of colonies per milliliter, 28 days: reinoculated at 21 days. Here is the method: as §1
The next data set relates to P. aeruginosa 9027. The data set is described as follows: Activity test: preservative challenge test in emulsion, P. aeruginosa 9027. It is filed as cell-based. The conditions noted are these: 0.5% preservative in emulsion; for number of colonies per milliliter, 28 days: reinoculated at 21 days. As to the method: as §1
For the next data set, the system named is S. aureus 6538. The data set is described as follows: Activity test: preservative challenge test in emulsion, S. aureus 6538. The class given is cell-based. The conditions noted are these: 0.5% preservative in emulsion; for number of colonies per milliliter, 28 days: reinoculated at 21 days. Here is the method:
as §1

As for `CCOC(=O)c1ccc(O)cc1` [Parahydroxy ethyl benzoate], the “Log P” value in data set [1] is reported as 2.47.

As for `C#CCOC(=O)c1ccc(O)c(Cl)c1` [Propargyl 3-Chloro-4-Hydroxybenzoate], the “number of colonies per milliliter, 48 hr” value in the data set on A. niger 16404 is given as 10000 cfu/ml; with B. cepacia 25416, > 10^6 cfu/ml; in the data set with C. albicans 10231, 280000 cfu/ml; with E. coli 8739, 30 cfu/ml; with P. aeruginosa 9027 it was less than 10 cfu/ml; with S. aureus 6538, 9600 cfu/ml. Besides, the “number of colonies per milliliter, 7 days” value was less than 10 cfu/ml in the data set with A. niger 16404; < 10^6 cfu/ml in the data set on B. cepacia 25416; 370 cfu/ml in the data set with C. albicans 10231; less than 10 cfu/ml with E. coli 8739; less than 10 cfu/ml with P. aeruginosa 9027; less than 10 cfu/ml in the data set with S. aureus 6538. Also, the “number of colonies per milliliter, 14 days” value is less than 10 cfu/ml in the data set on A. niger 16404; < 10^6 cfu/ml in the data set on B. cepacia 25416; less than 10 cfu/ml with C. albicans 10231; less than 10 cfu/ml in the data set on E. coli 8739; 80 cfu/ml in the data set with P. aeruginosa 9027; less than 10 cfu/ml in the data set on S. aureus 6538. Moreover, the “number of colonies per milliliter, 21 days” value is less than 10 cfu/ml in the data set on A. niger 16404; < 10^6 cfu/ml in the data set with B. cepacia 25416; less than 10 cfu/ml with C. albicans 10231; less than 10 cfu/ml with E. coli 8739; less than 10 cfu/ml in the data set on P. aeruginosa 9027; less than 10 cfu/ml in the data set on S. aureus 6538. For the same compound, the “number of colonies per milliliter, 28 days” value in the data set on A. niger 16404 is recorded as less than 10 cfu/ml; in the data set on B. cepacia 25416, < 10^6 cfu/ml; with C. albicans 10231, less than 10 cfu/ml; with E. coli 8739, less than 10 cfu/ml; with P. aeruginosa 9027, less than 10 cfu/ml; with S. aureus 6538, less than 10 cfu/ml.

Turning to `CCCCOC(=O)c1ccc(O)cc1` [Parahydroxy butyl benzoate], the “Log P” value in data set [1] is 3.57.

As for `C#CCOC(=O)c1ccc(O)c(O)c1` [Propargyl 3,4-Dihydroxybenzoate], the “number of colonies per milliliter, 48 hr” value with A. niger 16404, in the data set on B. cepacia 25416, in the data set on C. albicans 10231, in the data set on E. coli 8739, in the data set on P. aeruginosa 9027 and in the data set with S. aureus 6538 was less than 10 cfu/ml each time. Further, the “number of colonies per milliliter, 7 days” value with A. niger 16404, in the data set on B. cepacia 25416, with C. albicans 10231, in the data set on E. coli 8739, with P. aeruginosa 9027 and in the data set on S. aureus 6538 was less than 10 cfu/ml in each case. In addition, the “number of colonies per milliliter, 14 days” value in the data set with A. niger 16404, in the data set with B. cepacia 25416, in the data set with C. albicans 10231, in the data set with E. coli 8739, in the data set on P. aeruginosa 9027 and in the data set with S. aureus 6538 was less than 10 cfu/ml throughout. Besides, the “number of colonies per milliliter, 21 days” value with A. niger 16404, in the data set on B. cepacia 25416, with C. albicans 10231, with E. coli 8739, in the data set on P. aeruginosa 9027 and in the data set with S. aureus 6538 was less than 10 cfu/ml throughout. Further, the “number of colonies per milliliter, 28 days” value in the data set on A. niger 16404, with B. cepacia 25416, in the data set on C. albicans 10231, with E. coli 8739, in the data set with P. aeruginosa 9027 and in the data set on S. aureus 6538 was less than 10 cfu/ml each time.

Broadly, the Log P is a log measure of how a compound divides between an organic and an aqueous phase. Low readings indicate lower lipophilicity, high ones higher lipophilicity.
